Source: patent US20210323976A1, “HETEROARYL COMPOUNDS FOR KINASE INHIBITION” (ARIAD Pharmaceuticals, Inc., priority 2015, published 2021)

Experiments:
Assay type in all cases: cell-based
[1] = target: T1, EGFR exon 19 deletion (E746-A750) and T790M mutation (Homo sapiens, UniProt P00533, DEL746-750/T790M); assay: Ba/F3-EGFR-Del/T790M cell anti-proliferation assay (MTS); conditions: Ba/F3-EGFR-Del/T790M cells, 72 h, MTS signal
T1 construct: expressed in transfected cells; host or cells: Ba/F3 (murine pro-B) cells, lentiviral transduction with pLVX-IRES puro
T1 sequence (P00533 with tags, fused parts or gaps DEL746-750/T790M): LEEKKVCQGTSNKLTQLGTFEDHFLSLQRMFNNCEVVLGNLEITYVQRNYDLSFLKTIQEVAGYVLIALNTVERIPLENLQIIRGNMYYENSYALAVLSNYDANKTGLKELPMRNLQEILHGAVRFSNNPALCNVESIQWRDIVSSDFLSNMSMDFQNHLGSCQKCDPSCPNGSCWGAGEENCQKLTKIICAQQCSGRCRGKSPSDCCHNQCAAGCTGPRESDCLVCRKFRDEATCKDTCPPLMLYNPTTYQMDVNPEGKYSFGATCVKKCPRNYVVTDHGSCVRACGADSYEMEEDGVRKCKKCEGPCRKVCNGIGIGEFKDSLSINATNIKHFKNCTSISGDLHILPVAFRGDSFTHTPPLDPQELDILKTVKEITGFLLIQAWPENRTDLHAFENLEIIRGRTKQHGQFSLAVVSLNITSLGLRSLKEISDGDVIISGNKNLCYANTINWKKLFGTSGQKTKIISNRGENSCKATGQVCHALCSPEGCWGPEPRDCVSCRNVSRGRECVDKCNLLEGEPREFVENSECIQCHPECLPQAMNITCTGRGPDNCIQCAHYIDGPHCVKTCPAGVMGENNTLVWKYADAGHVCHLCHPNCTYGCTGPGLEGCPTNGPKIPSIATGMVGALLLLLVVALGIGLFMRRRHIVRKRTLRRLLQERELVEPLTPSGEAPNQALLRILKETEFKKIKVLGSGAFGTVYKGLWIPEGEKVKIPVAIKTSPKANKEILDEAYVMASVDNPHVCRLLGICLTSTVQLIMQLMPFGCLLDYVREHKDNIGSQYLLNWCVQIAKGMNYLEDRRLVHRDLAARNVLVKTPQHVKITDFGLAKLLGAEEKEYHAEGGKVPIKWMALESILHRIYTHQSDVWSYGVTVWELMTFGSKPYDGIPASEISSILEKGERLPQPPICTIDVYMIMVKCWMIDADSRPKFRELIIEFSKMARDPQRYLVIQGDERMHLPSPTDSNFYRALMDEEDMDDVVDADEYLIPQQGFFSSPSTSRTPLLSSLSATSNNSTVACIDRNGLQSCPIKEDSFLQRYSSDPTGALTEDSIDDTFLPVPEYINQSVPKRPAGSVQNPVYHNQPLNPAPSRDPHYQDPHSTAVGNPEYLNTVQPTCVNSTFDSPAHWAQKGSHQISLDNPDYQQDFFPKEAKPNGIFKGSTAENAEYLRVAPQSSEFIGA
Source text: A compound's ability in selectively inhibiting EGFR exon 19 deletion and T790M concurrent mutations can be assessed using Ba/F3 cells, a murine pro-B cell line, which have been transduced with EGFR exon 19 deletion and T790M mutation. An expression vector, pLVX-IRES puro (Clontech) coding for human EGFR E746-A750 deletion and T790M Mutation, was transfected into HEK293 cells by the Trans-Lentiviral ORF Packaging System (Thermo Scientific), to produce virus encoding EGFR exon 19 deletion and T790M mutations. Ba/F3 (DSMZ) cells maintained in RPM11640 medium supplemented with 10% fetal bovine serum, 200 pM L-glutamine/200 μg/mL penicillin/200 μg/mL streptomycin (Life Technology) and 10 ng/mL IL-3 (R&D system), were infected by EGFR E746-A750 deletion and T790M Mutation virus and subsequently selected by puromycin (Life Technology) selection and IL-3 depletion. Ba/F3 cells expressing EGFR E746-A750 deletion and T790M Mutation (named Ba/F3-EGFR-Del/T790M) can proliferate in the absence of IL-3. The anti-proliferative activity of compounds was determined as follows: BaF3-EGFR-Del/T790M cells seeded in 96 well plates (2500 cells/well) were treated with test compound (dissolved in DMSO) at a series of concentrations (4-fold dilution, top concentration: 10,000 nM). The plates were incubated for 72 h in a 37° C. incubator with 5% CO2, and the number of viable cells in each well were measured indirectly by CellTiter 96® Aqueous One Solution Cell Proliferation Assay (Promega; this assay is a colorimetric method for determining the number of viable cells through measurement of their metabolic activity by detection of enzymatic conversion of tetrazolium salts into blue formazan derivatives). Reagent (20 pL) was added into each well, and the plates were returned to the incubator for 2 h. The absorbance in each well was then measured at 490 nm using an Envision plate reader (Perkin Elmer). IC50 values were calculated by determining the concentration of compound required to decrease the MTS signal by 50% comparing to the DMSO control in best-fit curves using Microsoft XLfit software or Accelrys Pipeline Pilot.

[2] = target: T2, EGFR exon 21 L858R and T790M mutation (Homo sapiens, UniProt P00533, L858R/T790M); assay: Ba/F3-EGFR L858R/T790M cell anti-proliferation assay (MTS); conditions: Ba/F3-EGFR L858R/T790M cells, 72 h, MTS signal
T2 construct: expressed in transfected cells; host or cells: Ba/F3 (murine pro-B) cells, lentiviral transduction with pLVX-IRES puro
T2 sequence (P00533 25-1210 T790M/L858R): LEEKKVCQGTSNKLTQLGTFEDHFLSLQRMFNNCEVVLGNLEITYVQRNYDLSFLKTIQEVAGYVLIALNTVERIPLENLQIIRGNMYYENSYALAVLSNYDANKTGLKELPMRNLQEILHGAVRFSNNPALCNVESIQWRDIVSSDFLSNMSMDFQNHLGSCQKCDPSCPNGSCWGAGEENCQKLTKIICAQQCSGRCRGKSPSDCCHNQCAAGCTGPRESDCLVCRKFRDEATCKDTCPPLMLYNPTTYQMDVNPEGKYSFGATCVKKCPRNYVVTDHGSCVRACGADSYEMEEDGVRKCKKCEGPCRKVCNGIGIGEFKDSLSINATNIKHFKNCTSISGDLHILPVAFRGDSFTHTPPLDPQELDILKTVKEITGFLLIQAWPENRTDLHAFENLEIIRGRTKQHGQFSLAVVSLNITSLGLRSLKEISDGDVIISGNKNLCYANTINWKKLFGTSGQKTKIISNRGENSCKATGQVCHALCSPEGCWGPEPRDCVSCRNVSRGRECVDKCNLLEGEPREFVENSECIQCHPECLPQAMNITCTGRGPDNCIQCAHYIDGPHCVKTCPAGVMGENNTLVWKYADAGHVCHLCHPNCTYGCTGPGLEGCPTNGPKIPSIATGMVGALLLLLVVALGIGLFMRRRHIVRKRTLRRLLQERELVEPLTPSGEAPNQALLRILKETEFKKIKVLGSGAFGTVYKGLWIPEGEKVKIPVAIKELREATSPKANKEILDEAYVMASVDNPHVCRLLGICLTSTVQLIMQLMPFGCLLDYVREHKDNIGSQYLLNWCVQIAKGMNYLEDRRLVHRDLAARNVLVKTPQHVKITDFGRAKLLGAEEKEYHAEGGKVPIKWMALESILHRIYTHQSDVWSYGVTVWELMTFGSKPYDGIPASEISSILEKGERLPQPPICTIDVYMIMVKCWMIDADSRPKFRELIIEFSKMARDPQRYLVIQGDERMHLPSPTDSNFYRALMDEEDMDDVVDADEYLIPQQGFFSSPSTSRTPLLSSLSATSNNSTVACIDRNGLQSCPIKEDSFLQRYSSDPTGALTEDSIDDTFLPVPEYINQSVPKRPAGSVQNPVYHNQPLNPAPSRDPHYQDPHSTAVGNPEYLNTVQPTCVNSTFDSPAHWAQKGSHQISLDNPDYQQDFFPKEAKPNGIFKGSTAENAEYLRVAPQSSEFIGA
Source text: A compound's ability in selectively inhibiting EGFR L858R and T790M concurrent mutations can be assessed using Ba/F3 cells, a murine pro-B cell line, which have been transduced with EGFR L858R and T790M double mutations. An expression vector, pLVX-IRES puro (Clontech) coding for human EGFR L858R and T790M double mutation, was transfected into HEK293 cells by the Trans-Lentiviral ORF Packaging System (Thermo Scientific), to produce virus encoding EGFR L858R and T790M double mutations. Ba/F3 (DSMZ) cells maintained in RPM11640 medium supplemented with 10% fetal bovine serum, 200 pM L-glutamine/200 μg/mL penicillin/200 μg/mL streptomycin (Life Technology) and 10 ng/mL IL-3 (R&D system), were infected by EGFR L858R and T790M double mutation virus and subsequently selected by puromycin (Life Technology) selection and IL-3 depletion. Ba/F3 cells expressing EGFR L858R and T790M double mutation (named Ba/F3-EGFR L858R/T790M) can proliferate in the absence of IL-3. The anti-proliferative activity of compounds was determined as follows: BaF3-EGFR L858R/T790M cells seeded in 96 well plates (2500 cells/well) were treated with test compound (dissolved in DMSO) at a series of concentrations (4-fold dilution, top concentration: 10,000 nM). The plates were incubated for 72 h in a 37° C. incubator with 5% CO2, and the number of viable cells in each well were measured indirectly by CellTiter 96® Aqueous One Solution Cell Proliferation Assay (Promega; this assay is a colorimetric method for determining the number of viable cells through measurement of their metabolic activity by detection of enzymatic conversion of tetrazolium salts into blue formazan derivatives). Reagent (20 pL) was added into each well, and the plates were returned to the incubator for 2 h. The absorbance in each well was then measured at 490 nm using an Envision plate reader (Perkin Elmer). IC50 values were calculated by determining the concentration of compound required to decrease the MTS signal by 50% comparing to the DMSO control in best-fit curves using Microsoft XLfit software or Accelrys Pipeline Pilot.

[3] = target: T3, Her2 exon 20 YVMA insertion (A775_G776ins YVMA) (Homo sapiens, UniProt P04626, INS775YVMA); assay: Ba/F3-Her2 Exon20 YVMA cell anti-proliferation assay (MTS); conditions: Ba/F3-Her2 Exon20 YVMA cells, 72 h, MTS signal
T3 construct: expressed in transfected cells; host or cells: Ba/F3 (murine pro-B) cells, lentiviral transduction with pLVX-IRES puro
T3 sequence (P04626 with tags, fused parts or gaps INS775YVMA): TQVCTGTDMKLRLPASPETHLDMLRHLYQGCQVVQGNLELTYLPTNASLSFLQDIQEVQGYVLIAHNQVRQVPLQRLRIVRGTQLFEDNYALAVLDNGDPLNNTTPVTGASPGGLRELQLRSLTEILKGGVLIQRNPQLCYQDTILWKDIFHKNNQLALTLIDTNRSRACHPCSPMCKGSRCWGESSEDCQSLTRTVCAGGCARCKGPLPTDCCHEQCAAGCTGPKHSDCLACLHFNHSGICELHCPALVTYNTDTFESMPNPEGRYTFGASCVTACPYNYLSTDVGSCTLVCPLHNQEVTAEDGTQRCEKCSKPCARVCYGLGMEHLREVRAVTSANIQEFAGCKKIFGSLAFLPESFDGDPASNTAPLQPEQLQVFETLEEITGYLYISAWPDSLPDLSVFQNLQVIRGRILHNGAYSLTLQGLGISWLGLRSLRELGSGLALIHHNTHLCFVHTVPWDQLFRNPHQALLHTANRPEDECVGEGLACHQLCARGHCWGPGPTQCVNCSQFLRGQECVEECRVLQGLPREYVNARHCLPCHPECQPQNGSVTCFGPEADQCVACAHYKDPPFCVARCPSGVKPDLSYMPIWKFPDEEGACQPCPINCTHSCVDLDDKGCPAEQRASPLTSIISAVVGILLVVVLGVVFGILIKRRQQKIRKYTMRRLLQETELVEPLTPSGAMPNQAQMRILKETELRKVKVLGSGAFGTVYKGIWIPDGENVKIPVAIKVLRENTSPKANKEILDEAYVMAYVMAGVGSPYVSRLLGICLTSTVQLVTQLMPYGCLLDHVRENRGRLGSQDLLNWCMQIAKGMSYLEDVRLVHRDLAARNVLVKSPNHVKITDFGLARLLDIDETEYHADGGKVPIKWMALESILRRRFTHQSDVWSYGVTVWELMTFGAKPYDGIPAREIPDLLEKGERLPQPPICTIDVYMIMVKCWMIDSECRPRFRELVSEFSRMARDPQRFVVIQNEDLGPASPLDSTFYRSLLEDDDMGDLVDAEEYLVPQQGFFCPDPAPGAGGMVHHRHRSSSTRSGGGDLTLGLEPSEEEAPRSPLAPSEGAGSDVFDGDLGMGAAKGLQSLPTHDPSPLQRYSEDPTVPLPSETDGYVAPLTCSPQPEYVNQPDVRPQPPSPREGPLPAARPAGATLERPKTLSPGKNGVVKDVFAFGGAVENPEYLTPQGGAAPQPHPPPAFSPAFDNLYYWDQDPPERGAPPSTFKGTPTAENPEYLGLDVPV
Source text: A compound's ability in selectively inhibiting Her2 exon 20 YVMA insertion mutations can be assessed using Ba/F3 cells, a murine pro-B cell line, which have been transduced with Her2 Exon20 YVMA insertions. An expression vector, pLVX-IRES puro (Clontech) coding for human EGFR exon 20 insertions YVMA (A775_G776ins YVMA), was transfected into HEK293 cells by the Trans-Lentiviral ORF Packaging System (Thermo Scientific), to produce virus encoding EGFR exon 20 insertions. Ba/F3 (DSMZ) cells maintained in RPM11640 medium supplemented with 10% fetal bovine serum, 200 pM L-glutamine/200 μg/mL penicillin/200 μg/mL streptomycin (Life Technology) and 10 ng/mL IL-3 (R&D system), were infected by EGFR Exon20 virus and subsequently selected by puromycin (Life Technology) selection and IL-3 depletion. Ba/F3 cells expressing Her2 Exon20 YVMA insertions (named Ba/F3-Her2 Exon20 YVMA) can proliferate in the absence of IL-3. The anti-proliferative activity of compounds was determined as follows: BaF3-Her2 Exon20 YVMA cells seeded in 96 well plates (2500 cells/well) were treated with test compound (dissolved in DMSO) at a series of concentrations (4-fold dilution, top concentration: 10,000 nM). The plates were incubated for 72 h in a 37° C. incubator with 5% CO2, and the number of viable cells in each well were measured indirectly by CellTiter 96® Aqueous One Solution Cell Proliferation Assay (Promega; this assay is a colorimetric method for determining the number of viable cells through measurement of their metabolic activity by detection of enzymatic conversion of tetrazolium salts into blue formazan derivatives). Reagent (20 pL) was added into each well, and the plates were returned to the incubator for 2 h. The absorbance in each well was then measured at 490 nm using an Envision plate reader (Perkin Elmer). IC50 values were calculated by determining the concentration of compound required to decrease the MTS signal by 50% comparing to the DMSO control in best-fit curves using Microsoft XLfit software or Accelrys Pipeline Pilot.

Row | Structure (SMILES) | EGFR exon 19 deletion and T790M mutation IC50 [1] | EGFR exon 21 L858R and T790M mutation IC50 [2] | IC50 [3] [nM]
1 | C=CC(=O)Nc1cc(Nc2nccc(-c3c4n(c5ccccc35)CCOC4)n2)c(OC)cc1N(C)CCN(C)C [Example 1, N-(5-((4-(3,4-dihydro-1H-[1,4]oxazino[4,3-a]indol-10-yl)pyrimidin-2-yl)amino)-2-((2-(dimethylamino)ethyl)(methyl)amino)-4-methoxyphenyl)acrylamide] | A (Group A compounds have an IC50 value for the indicated mutant below about 100 nM) | A (Group A compounds have an IC50 value for the indicated mutant below about 100 nM) | 100 to 500
2 | C=CC(=O)Nc1cc(Nc2nccc(-c3c4n(c5ccccc35)CCN(C)C4=O)n2)c(OC)cc1N(C)CCN(C)C [Example 2, N-(2-((2-(dimethylamino)ethyl)(methyl)amino)-4-methoxy-5-((4-(2-methyl-1-oxo-1,2,3,4-tetrahydropyrazino[1,2-a]indol-10-yl)pyrimidin-2-yl)amino)phenyl)acrylamide] | A (Group A compounds have an IC50 value for the indicated mutant below about 100 nM) | A (Group A compounds have an IC50 value for the indicated mutant below about 100 nM) | > 1000
3 | C=CC(=O)Nc1cc(Nc2nccc(-c3c4n(c5ccccc35)CC(O)CC4)n2)c(OC)cc1N(C)CCN(C)C (stereo not drawn) [Example 3, N-(2-((2-(dimethylamino)ethyl)(methyl)amino)-5-((4-(7-hydroxy-6,7,8,9-tetrahydropyrido[1,2-a]indol-10-yl)pyrimidin-2-yl)amino)-4-methoxyphenyl)acrylamide] | A (Group A compounds have an IC50 value for the indicated mutant below about 100 nM) | A (Group A compounds have an IC50 value for the indicated mutant below about 100 nM) | 100 to 500
4 | C=CC(=O)Nc1cc(Nc2nccc(-c3c4n(c5ccccc35)CC3OC(C)(C)OC3C4)n2)c(OC)cc1N(C)CCN(C)C (stereo not drawn) [Example 4, N-(5-((4-(cis-2,2-dimethyl-3a,4,11,11a-tetrahydro-[1,3]dioxolo[4′,5′:4,5]pyrido[1,2-a]indol-10-yl)pyrimidin-2-yl)amino)-2-((2-(dimethylamino)ethyl)(methyl)amino)-4-methoxyphenyl)acrylamide] | A (Group A compounds have an IC50 value for the indicated mutant below about 100 nM) | A (Group A compounds have an IC50 value for the indicated mutant below about 100 nM) | < 100
5 | C=CC(=O)Nc1cc(Nc2nccc(-c3c4n(c5ccccc35)CCCC4)n2)c(OC)cc1N(C)CCN(C)C [Example 5, N-(2-((2-(dimethylamino)ethyl)(methyl)amino)-4-methoxy-5-((4-(6,7,8,9-tetrahydropyrido[1,2-a]indol-10-yl)pyrimidin-2-yl)amino)phenyl)acrylamide] | A (Group A compounds have an IC50 value for the indicated mutant below about 100 nM) | A (Group A compounds have an IC50 value for the indicated mutant below about 100 nM) | 100 to 500
6 | C=CC(=O)Nc1cc(Nc2nccc(-c3c4n(c5ccccc35)CC(O)C(O)C4)n2)c(OC)cc1N(C)CCN(C)C (stereo not drawn) [Example 6, N-(5-((4-(cis-7,8-dihydroxy-6,7,8,9-tetrahydropyrido[1,2-a]indol-10-yl)pyrimidin-2-yl)amino)-2-((2-(dimethylamino)ethyl)(methyl)amino)-4-methoxyphenyl)acrylamide] | A (Group A compounds have an IC50 value for the indicated mutant below about 100 nM) | A (Group A compounds have an IC50 value for the indicated mutant below about 100 nM) | 100 to 500
7 | C=CC(=O)Nc1cc(Nc2nccc(-c3c4n(c5ccccc35)CC(OC)CC4)n2)c(OC)cc1N(C)CCN(C)C (stereo not drawn) [Example 7, N-(2-((2-(dimethylamino)ethyl)(methyl)amino)-4-methoxy-5-((4-(7-methoxy-6,7,8,9-tetrahydropyrido[1,2-a]indol-10-yl)pyrimidin-2-yl)amino)phenyl)acrylamide] | A (Group A compounds have an IC50 value for the indicated mutant below about 100 nM) | A (Group A compounds have an IC50 value for the indicated mutant below about 100 nM) | 100 to 500
8 | C=CC(=O)Nc1cc(Nc2nccc(-n3c4c(c5ccccc53)CC(O)CC4)n2)c(OC)cc1N(C)CCN(C)C (stereo not drawn) [Example 10, N-(2-((2-(dimethylamino)ethyl)(methyl)amino)-5-((4-(3-hydroxy-1,2,3,4-tetrahydro-9H-carbazol-9-yl)pyrimidin-2-yl)amino)-4-methoxyphenyl)acrylamide] | A (Group A compounds have an IC50 value for the indicated mutant below about 100 nM) | A (Group A compounds have an IC50 value for the indicated mutant below about 100 nM) | < 100
